Test results reported in US20090275574A1, “NOVEL COMPOUNDS-300” (ASTRAZENECA AB, priority 2008, published 2009).

Columns and labels:
[1] = target: T1, hM1 (human Muscarinic receptor subtype 1) (Homo sapiens, UniProt P11229); test: Human M1 calcium mobilization FLIPR assay; assay type: cell-based; conditions: hM1 expressed in CHO cells, intracellular Ca2+ release (FLIPR)
T1 construct: expressed in transfected cells; host or cells: CHO cells (ATCC)
T1 sequence (P11229 1-460): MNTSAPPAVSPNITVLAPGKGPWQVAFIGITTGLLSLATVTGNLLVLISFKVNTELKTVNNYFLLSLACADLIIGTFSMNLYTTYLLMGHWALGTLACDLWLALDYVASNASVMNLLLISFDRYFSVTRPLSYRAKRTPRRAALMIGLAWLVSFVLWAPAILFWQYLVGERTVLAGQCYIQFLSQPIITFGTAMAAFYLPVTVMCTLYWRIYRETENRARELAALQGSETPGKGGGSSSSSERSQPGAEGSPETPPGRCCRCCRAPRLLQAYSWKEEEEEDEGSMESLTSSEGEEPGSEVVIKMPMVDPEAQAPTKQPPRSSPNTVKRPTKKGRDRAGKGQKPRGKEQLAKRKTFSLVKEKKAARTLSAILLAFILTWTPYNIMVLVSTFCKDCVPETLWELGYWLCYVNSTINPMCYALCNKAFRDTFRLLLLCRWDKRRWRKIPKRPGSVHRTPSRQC
Summary of the method: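 CHO cells expressing human M1, M3 or M5 receptors, dye-loaded 60 min at 37 °C; Ca2+ release read by FLIPR (510-570 nm). M3/M5 inhibition measured against 2 nM acetylcholine added after compound; M1 agonism from maximal RFU, others max minus min. pEC50/pIC50 from sigmoidal fits, 10-point three-fold dilutions.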

[2] = target: T2, cloned human M2 receptor (Homo sapiens, UniProt P08172); test: hM2 receptor GTPγS binding; assay type: biochemical; conditions: CHO membranes expressing hM2, [35S]GTPγS binding
T2 construct: purchased Perkin-Elmer RBHM2M; host or cells: Chinese hamster ovary cells (CHO), membranes
T2 sequence (P08172 1-466): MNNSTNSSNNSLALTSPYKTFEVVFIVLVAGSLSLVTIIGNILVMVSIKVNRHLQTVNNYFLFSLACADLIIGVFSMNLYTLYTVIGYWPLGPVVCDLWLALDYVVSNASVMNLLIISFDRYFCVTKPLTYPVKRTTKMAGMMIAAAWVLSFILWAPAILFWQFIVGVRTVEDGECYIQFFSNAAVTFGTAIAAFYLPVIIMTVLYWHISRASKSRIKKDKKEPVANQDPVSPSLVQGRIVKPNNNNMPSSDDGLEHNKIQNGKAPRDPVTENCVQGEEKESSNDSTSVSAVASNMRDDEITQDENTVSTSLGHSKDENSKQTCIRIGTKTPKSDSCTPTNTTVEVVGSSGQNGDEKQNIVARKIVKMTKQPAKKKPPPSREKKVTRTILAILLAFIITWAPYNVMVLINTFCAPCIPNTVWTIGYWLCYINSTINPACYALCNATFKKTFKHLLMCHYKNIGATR

Q: Which EC50 [1] does the source give for CCOCC1CCC(N2CCC(N3C(=O)CO[C@H]4CCCC[C@@H]43)CC2)C1 (single isomer, unassigned) [Example 44] here?
A: 0.97 nM

Q: And the EC50 [2]?
A: 1600 nM
